Series [1] deals with human fibroblast (ATCC 2076). Description: Confirmation of cytotoxicity (MTT cell viability). It is filed as cell-based. The settings on record: for Cell viability (%): human fibroblast, MTT. The protocol: The cell viability for human fibroblast (ATCC 2076) was measured using the anti-inflammatory composition prepared in the following Examples.
The human fibroblast (ATCC 2076) with a concentration of 5×10^4 cells/ml was inoculated into a 24-well culture plate of Iscove's Modified Dulbecco's Medium (IMDM, GIBCO) containing 10% bovine serum. […] Then, the supernatant was removed, the cells were washed with 200 μl of 5% phosphate buffered saline (PBS), 1.0 ml of MTT solution was added to each well, and after 4 hours, and the MTT was removed. Next, 1.0 ml of DMSO was added to each well, and incubation was performed overnight at 37° C. The absorbance at 570 nm was measured to determine the cell viability using Equation 1 below, and results thereof are shown in Table 1 below. Here, as a negative control group, a test group in which the active ingredient was not used was adopted. Cell viability (%)=(A570λ value/B570λ value)×100 [Equation 1]
A: Absorbance value at 570 nm of Example
B: Absorbance value at 570 nm of negative control group

For the next series, the system named is IL-8. Put plainly: Anti-inflammatory effect: IL-8 expression in atopic dermatitis-induced 3D skin model (immunohistochemistry). The series is classed as cell-based. The settings on record: compared with the atopic dermatitis-induced skin model, 72 hours, quantified immunohistochemistry, read-out: IL-8 inhibitory effect. The protocol:
(§1) In order to measure the anti-inflammatory efficacy, atopic dermatitis was induced with respect to IL-8 and IL-17A, which are inflammation-inducing cytokines, and expression amounts thereof were measured.
(§2) In order to induce atopic dermatitis, the 3D culture tissue (EpiDerm Full Thickness 400, sold by MatTek) media containing Poly (I:C), TNF-α, IL-4 and IL-13 were used, and treated for 72 hours with N-(2-hydroxyethyl)octanamide at a final concentration of 100 μM. Then, the 3D culture tissue was immobilized on formalin to make a paraffin block, and the degree of expression of inflammation-inducing cytokine was evaluated.
(§3) In FIG. 1, AD represents a skin model in which atopic dermatitis was induced, and the anti-inflammatory effect was evaluated based on the expression amounts of IL-8 and IL-17A.
(§4) Further, the inhibitory effect of each cytokine was quantified based on the results obtained through the immunohistochemistry obtained in FIG. 1, and shown in FIG. 2.

Another series relates to atopic dermatitis. Put plainly: Atopic dermatitis improvement effect (EASI score). The series is classed as in vivo, human. The following applies: 30 pediatric patients with atopic dermatitis, twice a day for 4 weeks. The protocol: In order to measure atopic dermatitis improvement effect, the anti-inflammatory compositions were prepared according to the following Examples. Here, the atopic dermatitis improvement effect was measured using an eczema area severity index (EASI) score. 30 pediatric patients with atopic dermatitis were treated twice a day for 4 weeks, and then effects on atopic symptoms were measured. Here, as a negative control group, a test group in which the active ingredient was not used was adopted.

In a further series the test system is IL-17A. Put plainly: Anti-inflammatory effect: IL-17A expression in atopic dermatitis-induced 3D skin model (immunohistochemistry). It is filed as cell-based. The settings on record: compared with the atopic dermatitis-induced skin model, 72 hours, quantified immunohistochemistry, read-out: IL-17A inhibitory effect. The protocol:
as §1, §2, §3, §4

The values below come from patent US11351131B2, “Anti-inflammatory composition” (NEOPHARM CO., LTD., priority 2016, dated 2022).

Some results are limits rather than exact numbers.

As for `CCCCCCCC(=O)NCCO` [Example 1, N-(2-hydroxyethyl)octanamide], in series [1] (in the concentration range of the evaluation method), the Cytotoxicity result is listed as “no cytotoxicity”. Besides, the “Cell viability (%)” value in series [1] (used amount 0.00064 μM) amounted to 100%; in series [1] (used amount 0.0032 μM), 102%; in series [1] (used amount 0.016 μM), 97%; in series [1] (used amount 0.08 μM), 98%; in series [1] (used amount 0.4 μM), 98%; in series [1] (used amount 2 μM), 101%. Also, the figures for the “Cell viability (%)” value in series [1] (used amount 10 μM), in series [1] (used amount 50 μM) and in series [1] (used amount 250 μM) were 103%, 98% and 109%, respectively. Also, the results for the inhibition at 100 µM with IL-8 and in the series with IL-17A were ≥ 48.6% and ≥ 57.5%, respectively. The “Atopic dermatitis improvement effect (EASI score)” value in the series with atopic dermatitis is “significant numerical decrease”.
